Data: PubChem BioAssay AID1963441 (Molecular Pharmacology Branch, DTP, NCI, 2024)

Tested on: NCI-H1876 complex spheroid growth, % test/control
Experiment: Anticancer human tumor NCI-H1876 cell line growth inhibition [Asc];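 also: compound exposure lasted 7 days starting three days after seeding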;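 as to viability, T/C: 100% = DMSO vehicle control wells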
Conditions: for IC50: curve of first compound; for viability, T/C: stronger effect = lower value; active = viability on the fitted dose curve at most 10% of control; inactive = the rest
In short: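 Stromal components (HUVEC and hMSC) are co-assembled with the cancer cells into multicellular spheroids. Drugs are then added singly or paired, at concentrations falling by half-log increments from a clinically achievable maximum, capped at 10 microM without known Cmax.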

[1] = second compound 0.0316 µM, first compound 0.00316 µM
[2] = second compound 0.0316 µM, first compound 0.01 µM
[3] = second compound 0.0316 µM, first compound 0.0316 µM
[4] = second compound 0.0316 µM, first compound 0.1 µM
[5] = second compound 0.1 µM, first compound 0.00316 µM
[6] = second compound 0.1 µM, first compound 0.01 µM
[7] = second compound 0.1 µM, first compound 0.0316 µM
[8] = second compound 0.1 µM, first compound 0.1 µM
[9] = second compound 0.316 µM, first compound 0.00316 µM
[10] = second compound 0.316 µM, first compound 0.01 µM
[11] = second compound 0.316 µM, first compound 0.0316 µM
[12] = second compound 0.316 µM, first compound 0.1 µM
[13] = second compound 1 µM, first compound 0.00316 µM
[14] = second compound 1 µM, first compound 0.01 µM
[15] = second compound 1 µM, first compound 0.0316 µM
[16] = second compound 1 µM, first compound 0.1 µM
[17] = second compound 3.16 µM, first compound 0.00316 µM
[18] = second compound 3.16 µM, first compound 0.01 µM
[19] = second compound 3.16 µM, first compound 0.0316 µM
[20] = second compound 3.16 µM, first compound 0.1 µM
[21] = second compound 10 µM, first compound 0.00316 µM
[22] = second compound 10 µM, first compound 0.01 µM
[23] = second compound 10 µM, first compound 0.0316 µM
[24] = second compound 10 µM, first compound 0.1 µM

Cn1ncnc1[C@H]1c2n[nH]c(=O)c3cc(F)cc(c23)N[C@@H]1c1ccc(F)cc1 + Cc1c(S(C)(=O)=O)c(-c2cc(F)cc(N3CCN(c4ccc(NS(=O)(=O)c5ccc(NC(CCN6CCC(C(=O)OCCCP(=O)(O)O)CC6)CSc6ccccc6)c(S(=O)(=O)C(F)(F)F)c5)cc4)CC3)c2)c(-c2ccc(Cl)cc2)n1C(C)C
> 100 nM: IC50 (second compound 0.0316 µM) | IC50 (second compound 0.1 µM) | IC50 (second compound 0.316 µM) | IC50 (second compound 1 µM) | IC50 (second compound 3.16 µM) | IC50 (second compound 10 µM)
inactive: viability, T/C (second compound 0.0316 µM, first compound 0.000316 µM) 89.8% | viability, T/C (second compound 0.0316 µM, first compound 0.001 µM) 82.8% | viability, T/C [1] 101% | viability, T/C [2] 94.2% | viability, T/C [3] 106% | viability, T/C [4] 81.6% | viability, T/C (second compound 0.1 µM, first compound 0.000316 µM) 100% | viability, T/C (second compound 0.1 µM, first compound 0.001 µM) 92.9% | viability, T/C [5] 98.4% | viability, T/C [6] 111% | viability, T/C [7] 96.7% | viability, T/C [8] 86.5% | viability, T/C (second compound 0.316 µM, first compound 0.000316 µM) 92% | viability, T/C (second compound 0.316 µM, first compound 0.001 µM) 101% | viability, T/C [9] 95.5% | viability, T/C [10] 110% | viability, T/C [11] 94.7% | viability, T/C [12] 74.3% | viability, T/C (second compound 1 µM, first compound 0.000316 µM) 110% | viability, T/C (second compound 1 µM, first compound 0.001 µM) 89.8% | viability, T/C [13] 94.7% | viability, T/C [14] 94.7% | viability, T/C [15] 91.7% | viability, T/C [16] 64% | viability, T/C (second compound 3.16 µM, first compound 0.000316 µM) 94.2% | viability, T/C (second compound 3.16 µM, first compound 0.001 µM) 95.7% | viability, T/C [17] 94.1% | viability, T/C [18] 92.6% | viability, T/C [19] 81% | viability, T/C [20] 53.7% | viability, T/C (second compound 10 µM, first compound 0.000316 µM) 100% | viability, T/C (second compound 10 µM, first compound 0.001 µM) 106% | viability, T/C [21] 84.2% | viability, T/C [22] 95.9% | viability, T/C [23] 80.4% | viability, T/C [24] 55.8%

Cn1ncnc1[C@H]1c2n[nH]c(=O)c3cc(F)cc(c23)N[C@@H]1c1ccc(F)cc1 + CCN1C(C(=O)NC23CCC(C(=O)O)(CC2)CC3)C(c2cccc(Cl)c2F)C2(C(=O)Nc3cc(Cl)ccc32)C12CCCCC2
> 100 nM: IC50 (second compound 0.00949 µM) | IC50 (second compound 0.03 µM) | IC50 (second compound 0.0949 µM) | IC50 (second compound 0.3 µM) | IC50 (second compound 0.949 µM) | IC50 (second compound 3 µM)
inactive: viability, T/C (second compound 0.00949 µM, first compound 0.000316 µM) 123% | viability, T/C (second compound 0.00949 µM, first compound 0.001 µM) 89.9% | viability, T/C (second compound 0.00949 µM, first compound 0.00316 µM) 113% | viability, T/C (second compound 0.00949 µM, first compound 0.01 µM) 102% | viability, T/C (second compound 0.00949 µM, first compound 0.0316 µM) 100% | viability, T/C (second compound 0.00949 µM, first compound 0.1 µM) 91.6% | viability, T/C (second compound 0.03 µM, first compound 0.000316 µM) 100% | viability, T/C (second compound 0.03 µM, first compound 0.001 µM) 102% | viability, T/C (second compound 0.03 µM, first compound 0.00316 µM) 107% | viability, T/C (second compound 0.03 µM, first compound 0.01 µM) 92.6% | viability, T/C (second compound 0.03 µM, first compound 0.0316 µM) 106% | viability, T/C (second compound 0.03 µM, first compound 0.1 µM) 95.4% | viability, T/C (second compound 0.0949 µM, first compound 0.000316 µM) 101% | viability, T/C (second compound 0.0949 µM, first compound 0.001 µM) 99.4% | viability, T/C (second compound 0.0949 µM, first compound 0.00316 µM) 111% | viability, T/C (second compound 0.0949 µM, first compound 0.01 µM) 104% | viability, T/C (second compound 0.0949 µM, first compound 0.0316 µM) 113% | viability, T/C (second compound 0.0949 µM, first compound 0.1 µM) 89% | viability, T/C (second compound 0.3 µM, first compound 0.000316 µM) 103% | viability, T/C (second compound 0.3 µM, first compound 0.001 µM) 120% | viability, T/C (second compound 0.3 µM, first compound 0.00316 µM) 111% | viability, T/C (second compound 0.3 µM, first compound 0.01 µM) 114% | viability, T/C (second compound 0.3 µM, first compound 0.0316 µM) 110% | viability, T/C (second compound 0.3 µM, first compound 0.1 µM) 98.3% | viability, T/C (second compound 0.949 µM, first compound 0.000316 µM) 118% | viability, T/C (second compound 0.949 µM, first compound 0.001 µM) 134% | viability, T/C (second compound 0.949 µM, first compound 0.00316 µM) 117% | viability, T/C (second compound 0.949 µM, first compound 0.01 µM) 134% | viability, T/C (second compound 0.949 µM, first compound 0.0316 µM) 123% | viability, T/C (second compound 0.949 µM, first compound 0.1 µM) 91.6% | viability, T/C (second compound 3 µM, first compound 0.000316 µM) 103% | viability, T/C (second compound 3 µM, first compound 0.001 µM) 105% | viability, T/C (second compound 3 µM, first compound 0.00316 µM) 81.3% | viability, T/C (second compound 3 µM, first compound 0.01 µM) 95.5% | viability, T/C (second compound 3 µM, first compound 0.0316 µM) 95.2% | viability, T/C (second compound 3 µM, first compound 0.1 µM) 95.5%

CNC(C)C(=O)NC1CN(S(=O)(=O)c2cccc(S(=O)(=O)N3CCC4CCC(C(=O)NC(c5ccccc5)c5ccccc5)N4C(=O)C(NC(=O)C(C)NC)C3)c2)CCC2CCC(C(=O)NC(c3ccccc3)c3ccccc3)N2C1=O (stereo unspecified) + Cc1c(S(C)(=O)=O)c(-c2cc(F)cc(N3CCN(c4ccc(NS(=O)(=O)c5ccc(NC(CCN6CCC(C(=O)OCCCP(=O)(O)O)CC6)CSc6ccccc6)c(S(=O)(=O)C(F)(F)F)c5)cc4)CC3)c2)c(-c2ccc(Cl)cc2)n1C(C)C
> 1000 nM: IC50 (second compound 0.0316 µM) | IC50 (second compound 0.1 µM) | IC50 (second compound 0.316 µM) | IC50 (second compound 1 µM) | IC50 (second compound 3.16 µM) | IC50 (second compound 10 µM)
inactive: viability, T/C [1] 95.1% | viability, T/C [2] 96.4% | viability, T/C [3] 98% | viability, T/C [4] 97.8% | viability, T/C (second compound 0.0316 µM, first compound 0.316 µM) 103% | viability, T/C (second compound 0.0316 µM, first compound 1 µM) 103% | viability, T/C [5] 91.3% | viability, T/C [6] 96.2% | viability, T/C [7] 95% | viability, T/C [8] 98.8% | viability, T/C (second compound 0.1 µM, first compound 0.316 µM) 105% | viability, T/C (second compound 0.1 µM, first compound 1 µM) 98.7% | viability, T/C [9] 101% | viability, T/C [10] 102% | viability, T/C [11] 97.2% | viability, T/C [12] 97.3% | viability, T/C (second compound 0.316 µM, first compound 0.316 µM) 103% | viability, T/C (second compound 0.316 µM, first compound 1 µM) 104% | viability, T/C [13] 94% | viability, T/C [14] 91.6% | viability, T/C [15] 91.6% | viability, T/C [16] 100% | viability, T/C (second compound 1 µM, first compound 0.316 µM) 112% | viability, T/C (second compound 1 µM, first compound 1 µM) 92.7% | viability, T/C [17] 99.9% | viability, T/C [18] 87.2% | viability, T/C [19] 96.1% | viability, T/C [20] 88.1% | viability, T/C (second compound 3.16 µM, first compound 0.316 µM) 101% | viability, T/C (second compound 3.16 µM, first compound 1 µM) 91.8% | viability, T/C [21] 97.4% | viability, T/C [22] 97.4% | viability, T/C [23] 88.3% | viability, T/C [24] 110% | viability, T/C (second compound 10 µM, first compound 0.316 µM) 102% | viability, T/C (second compound 10 µM, first compound 1 µM) 101%
